# Reference: US20200085047A1, “Use of an Acyclic Picolinamide Compound as a Fungicide for Control of Phytopathogenic Fungi in Vegetables” (Dow AgroSciences LLC, priority 2017, published 2020)
# What was measured:
# Format in all cases: in vivo
# [1] = system: Alternaria solani; experiment: Field assessment of Alternaria solani (ALTESO) on tomato, trial 2 (natural disease pressure); settings: for Percent disease control on tomato leaves, Trial 2, 5% EC: 5% EC + Agnique BP420; for Percent disease control on tomato leaves, Trial 2, 10% SC: 10% SC + Agnique BP420
# Description: (§1) Field Assessment of Alternaria solani (ALTESO) on Tomato:
# In a replicated trial, a fungicidal treatment containing Compound I, applied in both a 5% EC and 10% SC formulation and tank mixed with an adjuvant (Agnique BP420, 50% w/w at 0.3% v/v), was sprayed on tomato plants (LYPES, Taylor variety) at approximately 21 days after planting. Formulations of compound I was applied at rates of 100 and 200 grams of active ingredient per hectare (g ai/ha). The trial was based on six foliar applications at 10 day intervals under natural disease pressure of tomato early blight. The treatment was part of an experimental trial designed as a randomized complete block with four replications and a plot of approximately 2×4 m. Formulations of compound I were applied at water volume of 800 L/ha, using a backpack plot sprayer (BKPCKENG, Solo 443; HCSOLID—Albutz ATR80 Orange Nozzle) and pressurized at 300 kPa. Disease severity (percent control) was recorded as percent visual leaf infection per plot and was assessed at 10 days after the last application.
# [2] = system: Colletotrichum coccodes; experiment: Field assessment of Colletotrichum coccodes (COLLCA) in tomato; settings: SC
# Description: Field Assessment of Colletotrichum Coccodes (COLLCA) in Tomato:
# A fungicidal treatment containing Compound I, applied in an SC formulation (MSO built-in) and tank mixed with an adjuvant (Agnique BP-420, 50% w/w at 0.2% v/v or Adsee C80W 80%), was sprayed on tomato plants (LYPES, Roma VS Saladette type variety) at growth stage 12 in vegetative growth at rates of 50, 75, 100, and 150 grams of active ingredient per hectare (g ai/ha). The experimental plots were run with natural infestation of the anthracnose pathogen and supplemented with additional inoculum about one day after the 1st application. The treatment was part of an experimental trial designed as a randomized complete block (RCB) with four replications and a plot of approximately 6.67×30 ft. Compound I was applied at water volume of 40 gal/acre, using a backpack sprayer (carbon dioxide (CO2), 8004VS FF nozzles) and pressurized at 38 psi.
# Percent leaf severity was assessed three times during the trial (0-23 days after application 1). Area under the disease progress curve (AUDPC) was calculated for each plot using the recorded leaf severity data. Relative AUDPC (% control based on AUDPC) was calculated as percent of the untreated control.
# [3] = system: Corynespora cassiicola; experiment: Field assessment of Corynespora cassiicola (CORYCA) in tomato; settings: SC
# Description: Field Assessment of Corynespora cassiicola (CORYCA) in Tomato:
# A fungicidal treatment containing Compound I, applied in an SC formulation (MSO built-in) and tank mixed with an adjuvant (Agnique BP-420, 50% w/w at 0.2% v/v or Adsee C80W 80%), was sprayed on tomato plants (LYPES, Charger variety) at growth stage BBCH64 (4th flower open) at rates of 50, 75, 100, and 150 grams of active ingredient per hectare (g ai/ha). The experimental plots were inoculated with the target spot pathogen one day after initial application. The treatment was part of an experimental trial designed as a randomized complete block (RCB) with four replications and a plot of approximately 6×25 feet (ft). Compound I was applied at water volume of 100 gallons per acre (gal/acre), using a tractor sprayer (SCDISC D1 Nozzles) and pressurized at 200 psi.
# Disease severity (percentage of visual diseased foliage (leaf) on whole plot) was assessed four times during the trial (1-20 days after application, DAA). Area under the disease progress curve (AUDPC) was calculated for each plot using the sets of recorded severity data. Relative AUDPC (% control based on AUDPC) was calculated as percent of the untreated control.
# [4] = system: Alternaria solani; experiment: Field assessment of Alternaria solani (ALTESO) on tomato, trial 1 (inoculated); settings: for Percent disease control on tomato fruits (AUDPC), Trial 1, 5% EC: 5% EC + Agnique BP420, fruits; for Percent disease control on tomato leaves (AUDPC), Trial 1, 5% EC: 5% EC + Agnique BP420, leaves; for Percent disease control on tomato fruits (AUDPC), Trial 1, 10% SC: 10% SC + Agnique BP420, fruits; for Percent disease control on tomato leaves (AUDPC), Trial 1, 10% SC: 10% SC + Agnique BP420, leaves
# Protocol: as §1
# Assessment of compound I of ALTESO on tomato was performed in two separate field trials. In the first trial, a fungicidal treatment containing Compound I, applied in both a 5% EC and 10% SC formulation and tank mixed with an adjuvant (Agnique BP420, 50% w/w at 0.3% v/v), was sprayed on tomato plants (LYPES) at approximately 60-70 cm in height at rates of 100 and 200 grams of active ingredient per hectare (g ai/ha). The trial was based on five foliar applications at 7 day intervals with inoculation with the early blight pathogen 2 days after the first application. The treatment was part of an experimental trial designed as a randomized complete block with four replications and a plot of approximately 1.5×4 m. Compound I was applied at water volume of 1000 L/ha with an AZO backpack sprayer using compressed air.
# Disease severity was recorded as percent diseased area on a random selection of 20 leaves and 20 fruits per plot. Percent control was assessed with 6 evaluations made between 0-35 days after the first application, DAA1. Area under the disease progress curve (AUDPC) was calculated for each plot using the sets of recorded severity data. Relative AUDPC (% control based on AUDPC) was calculated as percent of the nontreated control.
# [5] = Compound I 50 g/ha, Agnique BP420, 200 mL/ha
# [6] = Compound I 50 g/ha, MSO, 100 g/ha
# [7] = Compound I 75 g/ha, MSO, 150 g/ha
# [8] = Compound I 100 g/ha, Adsee C80W 80%, 250 g/ha
# [9] = Compound I 100 g/ha, Agnique BP420, 400 mL/ha
# [10] = Compound I 100 g/ha, MSO, 200 g/ha
# [11] = Compound I 150 g/ha, Agnique BP420, 600 mL/ha
# [12] = Compound I 150 g/ha, MSO, 300 g/ha
smiles,measurement,setting,value
"COc1ccnc(C(=O)N[C@@H](C)C(=O)O[C@@H](C)C(c2ccc(F)cc2)c2ccc(F)cc2)c1OC(C)=O [Compound I, (S)-1,1-bis(4-fluorophenyl)propan-2-yl (3-acetoxy-4-methoxypicolinoyl)-L-alaninate]","Percent disease control on tomato leaves, Trial 2, 5% EC",[1]; 100 g ai/ha,A (76-100)
same,"Percent disease control on tomato leaves, Trial 2, 10% SC",[1]; 100 g ai/ha,A (76-100)
same,"Percent disease control on tomato leaves, Trial 2, 5% EC",[1]; 200 g ai/ha,A (76-100)
same,"Percent disease control on tomato leaves, Trial 2, 10% SC",[1]; 200 g ai/ha,A (76-100)
same,Percent Control of COLLCA (AUDPC),[2]; [5],67%
same,Percent Control of COLLCA (AUDPC),[2]; [6],46.0%
same,Percent Control of COLLCA (AUDPC),"[2]; Compound I 75 g/ha, Agnique BP420, 2300 mL/ha",91.1%
same,Percent Control of COLLCA (AUDPC),[2]; [7],75.5%
same,Percent Control of COLLCA (AUDPC),[2]; [8],57.3%
same,Percent Control of COLLCA (AUDPC),[2]; [9],91.0%
same,Percent Control of COLLCA (AUDPC),[2]; [10],92.6%
same,Percent Control of COLLCA (AUDPC),[2]; [11],95.7%
same,Percent Control of COLLCA (AUDPC),[2]; [12],95.3%
same,Percent Control of CORYCA (AUDPC),[3]; [5],53.1%
same,Percent Control of CORYCA (AUDPC),[3]; [6],55.2%
same,Percent Control of CORYCA (AUDPC),"[3]; Compound I 75 g/ha, Agnique BP420, 300 mL/ha",56.9%
same,Percent Control of CORYCA (AUDPC),[3]; [7],56.1%
same,Percent Control of CORYCA (AUDPC),[3]; [8],61.4%
same,Percent Control of CORYCA (AUDPC),[3]; [9],74.1%
same,Percent Control of CORYCA (AUDPC),[3]; [10],71.6%
same,Percent Control of CORYCA (AUDPC),[3]; [11],83.9%
same,Percent Control of CORYCA (AUDPC),[3]; [12],84.0%
same,"Percent disease control on tomato fruits (AUDPC), Trial 1, 5% EC",[4]; 100 g ai/ha,A (76-100)
same,"Percent disease control on tomato leaves (AUDPC), Trial 1, 5% EC",[4]; 100 g ai/ha,A (76-100)
same,"Percent disease control on tomato fruits (AUDPC), Trial 1, 10% SC",[4]; 100 g ai/ha,A (76-100)
same,"Percent disease control on tomato leaves (AUDPC), Trial 1, 10% SC",[4]; 100 g ai/ha,A (76-100)
same,"Percent disease control on tomato fruits (AUDPC), Trial 1, 5% EC",[4]; 200 g ai/ha,A (76-100)
same,"Percent disease control on tomato leaves (AUDPC), Trial 1, 5% EC",[4]; 200 g ai/ha,A (76-100)
same,"Percent disease control on tomato fruits (AUDPC), Trial 1, 10% SC",[4]; 200 g ai/ha,A (76-100)
same,"Percent disease control on tomato leaves (AUDPC), Trial 1, 10% SC",[4]; 200 g ai/ha,A (76-100)
